# Reference: publication PMC12983307 (Journal of the American Chemical Society, 2026)
# Bridge positions count the residues as written; N and C are the ends. Peptide text beside a SMILES is read from it.
# Target: AgrC (Staphylococcus aureus, UniProt O07911)
# Test: fluorescence polarization displacement of TAMRA-AIP-III D4A from AgrC nanodiscs
# Format: binding
# Settings: read-out: % reduction in polarization at 10 μM
# AgrC, sequence (O07911 entry or part of it): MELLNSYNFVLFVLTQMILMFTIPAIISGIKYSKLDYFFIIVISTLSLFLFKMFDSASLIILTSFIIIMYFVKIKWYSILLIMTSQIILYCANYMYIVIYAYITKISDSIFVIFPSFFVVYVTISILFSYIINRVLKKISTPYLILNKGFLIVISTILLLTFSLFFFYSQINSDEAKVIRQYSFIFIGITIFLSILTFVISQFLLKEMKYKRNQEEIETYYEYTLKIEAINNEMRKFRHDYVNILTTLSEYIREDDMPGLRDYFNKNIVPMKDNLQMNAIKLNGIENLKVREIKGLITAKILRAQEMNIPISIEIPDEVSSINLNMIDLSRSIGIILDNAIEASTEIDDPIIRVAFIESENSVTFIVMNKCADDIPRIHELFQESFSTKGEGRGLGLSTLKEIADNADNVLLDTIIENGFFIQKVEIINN
structure (smiles),measurement,value
CC[C@H](C)[C@@H]1NC(=O)[C@H](Cc2ccccc2)NC(=O)[C@H](CC(=O)O)NC(=O)[C@@H](NC(=O)[C@@H](NC(=O)[C@H](CO)NC(=O)[C@@H](N)Cc2ccc(O)cc2)[C@@H](C)O)CSC(=O)[C@H](CCSC)NC1=O [AIP-I] (H-YSTCDFIM; thioester 4-C),inhibition at 10 µM,62%
